Columns and labels:
Experiment in all cases: relative viability (nuclei count vs DMSO), 5 days (fraction); higher = more cells survive
NCI-H1915 = tested on: NCI-H1915
Summary of the method: (§1)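 Relative viability equals treated-well nuclei counts divided by vehicle-well nuclei counts. Counts came from 4× images of lung cancer cell lines grown in 1536-well plates for 5 days after pin-tool dosing on the day after seeding. Dosing used one drug alone or a fixed anchor-drug dose plus five library-drug doses (not always all listed) in √10 steps, and values are medians of duplicate plates.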

NCI-H2347 = tested on: NCI-H2347
Summary of the method: as §1

NCI-H1437 = tested on: NCI-H1437
Summary of the method: as §1

NCI-H1755 = tested on: NCI-H1755
Summary of the method: as §1

NCI-H1944 = tested on: NCI-H1944
Summary of the method: as §1

NCI-H1793 = tested on: NCI-H1793
Summary of the method: as §1

LXF-289 = tested on: LXF-289
Summary of the method: as §1

NCI-H1395 = tested on: NCI-H1395
Summary of the method: as §1

CAL-12T = tested on: CAL-12T
Summary of the method: as §1

EMC-BAC-2 = tested on: EMC-BAC-2
Summary of the method: as §1

NCI-H1651 = tested on: NCI-H1651
Summary of the method: as §1

H3255 = tested on: H3255
Summary of the method: as §1

NCI-H2087 = tested on: NCI-H2087
Summary of the method: as §1

LC-2-ad = tested on: LC-2-ad
Summary of the method: as §1

NCI-H2085 = tested on: NCI-H2085
Summary of the method: as §1

LK-2 = tested on: LK-2
Summary of the method: as §1

EKVX = tested on: EKVX
Summary of the method: as §1

PC-3 [JPC-3] = tested on: PC-3 [JPC-3]
Summary of the method: as §1

## O=C(O)CCCCC(CCSCc1ccccc1)SCc1ccccc1 (stereo not drawn) [CPI-613] + NC(=O)Nc1cc(-c2cccc(F)c2)sc1C(=O)N[C@H]1CCCNC1 [AZD7762] (partner 0.2 µM)
NCI-H1915; first compound 5 µM
  relative viability: 0.684
NCI-H1915; first compound 15.81 µM
  relative viability: 0.639
NCI-H1915; first compound 50 µM
  relative viability: 0.627
NCI-H1915; first compound 158.11 µM
  relative viability: 0.535
NCI-H1915; first compound 500 µM
  relative viability: 0.303
NCI-H2347; first compound 5 µM
  relative viability: 0.735
NCI-H2347; first compound 15.81 µM
  relative viability: 0.787
NCI-H2347; first compound 50 µM
  relative viability: 0.715
NCI-H2347; first compound 158.11 µM
  relative viability: 0.718
NCI-H2347; first compound 500 µM
  relative viability: 0.435
NCI-H1437; first compound 5 µM
  relative viability: 1.11
NCI-H1437; first compound 15.81 µM
  relative viability: 1.13
NCI-H1437; first compound 50 µM
  relative viability: 1.08
NCI-H1437; first compound 158.11 µM
  relative viability: 0.604
NCI-H1437; first compound 500 µM
  relative viability: 0.855
NCI-H1755; first compound 5 µM
  relative viability: 0.383
NCI-H1755; first compound 15.81 µM
  relative viability: 0.4
NCI-H1755; first compound 50 µM
  relative viability: 0.319
NCI-H1755; first compound 158.11 µM
  relative viability: 0.397
NCI-H1755; first compound 500 µM
  relative viability: 0.375
NCI-H1944; first compound 5 µM
  relative viability: 0.511
NCI-H1944; first compound 15.81 µM
  relative viability: 0.487
NCI-H1944; first compound 50 µM
  relative viability: 0.473
NCI-H1944; first compound 158.11 µM
  relative viability: 0.307
NCI-H1944; first compound 500 µM
  relative viability: 0.345
NCI-H1793; first compound 5 µM
  relative viability: 0.447
NCI-H1793; first compound 15.81 µM
  relative viability: 0.367
NCI-H1793; first compound 50 µM
  relative viability: 0.372
NCI-H1793; first compound 158.11 µM
  relative viability: 0.11
NCI-H1793; first compound 500 µM
  relative viability: 0.0077
LXF-289; first compound 5 µM
  relative viability: 1
LXF-289; first compound 15.81 µM
  relative viability: 1
LXF-289; first compound 50 µM
  relative viability: 1.03
LXF-289; first compound 158.11 µM
  relative viability: 0.722
LXF-289; first compound 500 µM
  relative viability: 0.774
NCI-H1395; first compound 5 µM
  relative viability: 0.42
NCI-H1395; first compound 15.81 µM
  relative viability: 0.403
NCI-H1395; first compound 50 µM
  relative viability: 0.381
NCI-H1395; first compound 158.11 µM
  relative viability: 0.4
NCI-H1395; first compound 500 µM
  relative viability: 0.327
CAL-12T; first compound 5 µM
  relative viability: 0.624
CAL-12T; first compound 15.81 µM
  relative viability: 0.457
CAL-12T; first compound 50 µM
  relative viability: 0.509
CAL-12T; first compound 158.11 µM
  relative viability: 0.541
CAL-12T; first compound 500 µM
  relative viability: 0.469
EMC-BAC-2; first compound 5 µM
  relative viability: 1.1
EMC-BAC-2; first compound 15.81 µM
  relative viability: 1.05
EMC-BAC-2; first compound 50 µM
  relative viability: 1.14
EMC-BAC-2; first compound 158.11 µM
  relative viability: 0.902
EMC-BAC-2; first compound 500 µM
  relative viability: 0.529
NCI-H1651; first compound 5 µM
  relative viability: 0.484
NCI-H1651; first compound 15.81 µM
  relative viability: 0.421
NCI-H1651; first compound 50 µM
  relative viability: 0.421
NCI-H1651; first compound 158.11 µM
  relative viability: 0.317
NCI-H1651; first compound 500 µM
  relative viability: 0.45
H3255; first compound 5 µM
  relative viability: 0.816
H3255; first compound 15.81 µM
  relative viability: 0.847
H3255; first compound 50 µM
  relative viability: 0.833
H3255; first compound 158.11 µM
  relative viability: 0.733
H3255; first compound 500 µM
  relative viability: 0.853
NCI-H2087; first compound 5 µM
  relative viability: 1.4
NCI-H2087; first compound 15.81 µM
  relative viability: 0.87
NCI-H2087; first compound 50 µM
  relative viability: 1.16
NCI-H2087; first compound 158.11 µM
  relative viability: 0.446
NCI-H2087; first compound 500 µM
  relative viability: 0.01
LC-2-ad; first compound 5 µM
  relative viability: 0.771
LC-2-ad; first compound 15.81 µM
  relative viability: 0.813
LC-2-ad; first compound 50 µM
  relative viability: 0.825
LC-2-ad; first compound 158.11 µM
  relative viability: 0.283
LC-2-ad; first compound 500 µM
  relative viability: 0.01
NCI-H2085; first compound 5 µM
  relative viability: 0.895
NCI-H2085; first compound 15.81 µM
  relative viability: 0.785
NCI-H2085; first compound 50 µM
  relative viability: 0.895
NCI-H2085; first compound 158.11 µM
  relative viability: 0.856
NCI-H2085; first compound 500 µM
  relative viability: 0.209
LK-2; first compound 5 µM
  relative viability: 0.408
LK-2; first compound 15.81 µM
  relative viability: 0.359
LK-2; first compound 50 µM
  relative viability: 0.343
LK-2; first compound 158.11 µM
  relative viability: 0.355
LK-2; first compound 500 µM
  relative viability: 0.289
EKVX; first compound 5 µM
  relative viability: 0.731
EKVX; first compound 15.81 µM
  relative viability: 0.646
EKVX; first compound 50 µM
  relative viability: 0.505
EKVX; first compound 500 µM
  relative viability: 0.62
PC-3 [JPC-3]; first compound 5 µM
  relative viability: 0.777
PC-3 [JPC-3]; first compound 50 µM
  relative viability: 0.909
PC-3 [JPC-3]; first compound 158.11 µM
  relative viability: 0.464
PC-3 [JPC-3]; first compound 500 µM
  relative viability: 0.114

Source: the supplement of paper PMC10307832
